We go through 13 compounds from patent US12338243B2, “P2X7 modulators” (JANSSEN PHARMACEUTICA NV, priority 2014, dated 2025).

Each structure is given as a SMILES string. pIC50, pKi: −log10 of the molar value. Read-outs that look alike come from different tables or passages of the source.

One may read the pIC50 as −log10 of the IC50, conventionally taken in molar units. One may read the IC50 as the concentration that gives 50% inhibition. As usually defined, the pKi is the negative decadic logarithm of the Ki, by convention in mol/L.

The target of assay [1] is T1, P2X7 (Homo sapiens, UniProt Q99572).
T1 sequence (Q99572 1-595): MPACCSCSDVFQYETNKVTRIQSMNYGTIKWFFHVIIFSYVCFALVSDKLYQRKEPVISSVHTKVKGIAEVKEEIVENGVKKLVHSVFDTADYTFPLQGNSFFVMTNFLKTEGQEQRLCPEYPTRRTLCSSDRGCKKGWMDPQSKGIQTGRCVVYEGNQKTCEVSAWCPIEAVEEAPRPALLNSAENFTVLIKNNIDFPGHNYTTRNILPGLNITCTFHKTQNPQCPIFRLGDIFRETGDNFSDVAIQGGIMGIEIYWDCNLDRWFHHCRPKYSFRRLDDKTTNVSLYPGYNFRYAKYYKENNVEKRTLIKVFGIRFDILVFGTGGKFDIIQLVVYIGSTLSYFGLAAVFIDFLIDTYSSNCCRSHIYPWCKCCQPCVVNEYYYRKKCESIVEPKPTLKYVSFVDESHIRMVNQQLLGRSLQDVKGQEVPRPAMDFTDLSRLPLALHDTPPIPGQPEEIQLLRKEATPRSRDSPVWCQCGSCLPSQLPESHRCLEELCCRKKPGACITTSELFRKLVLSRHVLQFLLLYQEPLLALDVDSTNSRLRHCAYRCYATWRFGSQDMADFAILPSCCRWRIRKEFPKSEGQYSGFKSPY
Description: Ca2+ flux (FLIPR) in 1321N1 cells expressing recombinant human P2X7 channel. The format is cell-based. On the set-up: expressed in transfected cells; host or cells: 1321N1 cells. Particulars: 250 μM BzATP. Summed up:
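1321N1 cells expressing recombinant human P2X7, loaded 60 min with Calcium-4 dye in HEPES buffer pH 7.40 (1 mM CaCl2, 1 mM MgCl2), preincubated 30 min with compounds. Fluorescence change recorded 180 seconds after agonist addition.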
In general terms: Calcium assays in cells follow changes in intracellular calcium, usually with a dye or a luminescent sensor.

Assay [2] concerns the target T2, rat P2X7 (Rattus norvegicus, UniProt Q64663).
T2 sequence (Q64663 1-595): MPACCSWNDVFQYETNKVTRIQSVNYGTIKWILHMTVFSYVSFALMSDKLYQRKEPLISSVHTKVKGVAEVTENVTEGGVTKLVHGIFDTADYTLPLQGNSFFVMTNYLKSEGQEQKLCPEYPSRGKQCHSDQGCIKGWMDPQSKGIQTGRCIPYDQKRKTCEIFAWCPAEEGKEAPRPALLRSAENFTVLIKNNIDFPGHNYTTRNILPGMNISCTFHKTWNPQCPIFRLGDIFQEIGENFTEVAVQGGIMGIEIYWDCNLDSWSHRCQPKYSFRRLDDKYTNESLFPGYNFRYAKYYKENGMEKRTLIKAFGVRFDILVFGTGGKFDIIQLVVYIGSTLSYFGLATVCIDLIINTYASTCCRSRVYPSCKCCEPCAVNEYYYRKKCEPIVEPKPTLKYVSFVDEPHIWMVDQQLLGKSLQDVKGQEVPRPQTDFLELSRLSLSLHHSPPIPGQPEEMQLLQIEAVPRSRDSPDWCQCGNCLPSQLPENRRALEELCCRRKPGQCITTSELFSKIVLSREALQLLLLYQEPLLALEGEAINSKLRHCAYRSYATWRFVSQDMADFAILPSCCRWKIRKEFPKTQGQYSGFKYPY
Description: Ca2+ flux (FLIPR) in 1321N1 cells expressing recombinant rat P2X7 channel. Particulars: 250 μM BzATP; for IC50: FLIPR (rat) IC50 (μM); for pIC50: read-out: FLIPR (rat) IC50.

Assay [3] deals with T1, P2X7. Kind of assay: Radioligand binding, human P2X7-1321N1 cell membranes, tritiated A-804598.
Description: (§1) P2X7 Antagonism in Recombinant Human P2X7 Cells or Recombinant Rat P2X7 Cells: (a) Ca^2+ Flux and (b) Radioligand Binding
In assay [4] the target is T1, P2X7. Kind of assay: P2X7 antagonism in human PBMCs (IL-1β release, ELISA). The format is cell-based. Also noted: PBMCs were isolated from blood using a Ficoll density gradient technique; endogenous in cells; host or cells: human PBMCs / human whole blood from donors. The settings on record: LPS 30 ng/ml + 0.5 mM Bz-ATP, compound 10 μM. Here is the method: P2X7 Antagonism in Human Peripheral Blood Mononuclear Cells (PBMCs) and Human Whole Blood.
Human blood was collected using a blood donor program. PBMCs were isolated from blood using a Ficoll density gradient technique. Briefly, blood was laid on Ficoll solution and centrifuged at RT for 20 minutes at 2000 rpm. The buffy layer (between red blood cells and plasma) was carefully collected by aspiration, washed with PBS and centrifuged again at 1500 rpm for 15 minutes. The resulting cell pellet was washed and plated on 96 well-plates for experiments. For the Human Whole Blood experiments, 150 μl of human blood was platted on 96 well-plates. Lipopolysaccharide (LPS) (30 ng/ml) was added to each well and incubated for 1 hour. Test compounds were then added and incubated for 30 minutes. The P2X7 agonist, 2′(3′)-O-(4-benzoylbenzoyl) adenosine 5′ triphosphate (Bz-ATP) was then added at a final concentration of 0.5 mM (PBMC) or 1 mM (blood). Cells were incubated for an additional 1.5 hours. At that point, supernatant was collected and stored for IL-1β assay using manufacturer's protocol for enzyme-linked immunosorbent assay (ELISA). Data was expressed as percent control, where control is defined as the difference in IL-1β release in LPS+Bz-ATP samples and LPS only samples. Data was plotted as response (% control) versus concentration to generate IC50 values. […] Data are analyzed and graphed on Graphpad Prism 5. For analysis, each concentration point is averaged from triplicate values and the averaged values are plotted on Graphpad Prism. The IC50 for each compound is then uploaded into 3DX.
For orientation: An ELISA detects its analyte on a solid surface through an enzyme-linked reagent.

Assay [5] has as its target T2, rat P2X7. Kind of assay: Radioligand binding, rat P2X7-1321N1 cell membranes, tritiated A-804598.
Description: as §1

Regarding `O=C(c1ccc(F)c(C(F)(F)F)c1Cl)N1CCn2c(nnc2C(F)(F)F)C1c1ccccc1` (single isomer, unassigned) [Example 95, (R*)-(2-chloro-4-fluoro-3-(trifluoromethyl)phenyl)(8-phenyl-3-(trifluoromethyl)-5,6-dihydro-[1,2,4]triazolo[4,3-a]pyrazin-7(8H)-yl)methanone], the pIC50 on P2X7 [1] was 8.01. Besides, the IC50 on rat P2X7 [2] was 0.211 µM. The compound also showed a pKi at P2X7 [3] of 7.50. The “PBMC 10 μM (% control)” value at P2X7 [4] was 8.9 % control.
For the compound `O=C(c1ccc(F)c(C(F)(F)F)c1Cl)N1CCn2c(nnc2C(F)(F)F)C1c1ccccc1` (single isomer, unassigned) [Example 96, (S*)-(2-chloro-4-fluoro-3-(trifluoromethyl)phenyl)(8-phenyl-3-(trifluoromethyl)-5,6-dihydro-[1,2,4]triazolo[4,3-a]pyrazin-7(8H)-yl)methanone], on P2X7 [1], the pIC50 is 5.31. Besides, the half-inhibitory concentration (IC50) at rat P2X7 [2] was above 10 µM. Further, at P2X7 [4], the “PBMC 10 μM (% control)” value came to 43.6 % control.
Turning to `O=C(c1ccnc(C(F)(F)F)c1Cl)N1CCn2c(nnc2C(F)(F)F)C1c1ccccc1` (single isomer, unassigned) [Example 100, (S*)-(3-chloro-2-(trifluoromethyl)pyridin-4-yl)(8-phenyl-3-(trifluoromethyl)-5,6-dihydro-[1,2,4]triazolo[4,3-a]pyrazin-7(8H)-yl)methanone], the “PBMC 10 μM (% control)” value at P2X7 [4] is on record as 102.0 % control.
Consider `C[C@H]1Cn2c(nnc2-c2ccc(F)cn2)CN1C(=O)c1cccc(C(F)(F)F)c1Cl` [Example 70, (S)-(2-chloro-3-(trifluoromethyl)phenyl)(3-(5-fluoropyridin-2-yl)-6-methyl-5,6-dihydro-[1,2,4]triazolo[4,3-a]pyrazin-7(8H)-yl)methanone], for which the pIC50 at P2X7 [1] was 8.16. Further, the IC50 on rat P2X7 [2] came to 0.0077 µM. The results for the pKi at rat P2X7 [5] and on P2X7 [3] were 8.40 and 7.90, respectively.
The like results for `O=C(c1cccc(C(F)(F)F)c1Cl)N1CCn2c(C3CC3)nnc2[C@@H]1c1ccccc1` [Example 76, (S)-(2-chloro-3-(trifluoromethyl)phenyl)(3-cyclopropyl-8-phenyl-5,6-dihydro-[1,2,4]triazolo[4,3-a]pyrazin-7(8H)-yl)methanone] were, in that order, 8.17, 0.0168 µM, 8.30 and 8.00.
For `CC(C)(C)c1nnc2n1CCN(C(=O)c1cccc(C(F)(F)F)c1Cl)[C@@H]2c1ccccc1` [Example 81, (R)-(3-(tert-butyl)-8-phenyl-5,6-dihydro-[1,2,4]triazolo[4,3-a]pyrazin-7(8H)-yl)(2-chloro-3-(trifluoromethyl)phenyl)methanone], the negative logarithm of the IC50 (pIC50) on P2X7 [1] is 7.95; on rat P2X7 [2], 7.57. Also, the negative logarithm of the Ki (pKi) at rat P2X7 [5] is 8.05; on P2X7 [3], 7.30.
Consider `CCc1nnc2n1CCN(C(=O)c1cccc(C(F)(F)F)c1Cl)[C@@H]2c1ccccc1` [Example 86, (R)-(2-chloro-3-(trifluoromethyl)phenyl)(3-ethyl-8-phenyl-5,6-dihydro-[1,2,4]triazolo[4,3-a]pyrazin-7(8H)-yl)methanone], for which the negative logarithm of the IC50 (pIC50) on P2X7 [1] was 8.64; at rat P2X7 [2], 7.23. For the same compound, the negative-log Ki (pKi) at rat P2X7 [5] was 8.00; on P2X7 [3], 7.90.
Turning to `CC(C)c1nnc2n1CCN(C(=O)c1cccc(C(F)(F)F)c1Cl)[C@@H]2c1ccccc1` [Example 88, (R)-(2-chloro-3-(trifluoromethyl)phenyl)(3-isopropyl-8-phenyl-5,6-dihydro-[1,2,4]triazolo[4,3-a]pyrazin-7(8H)-yl)methanone], at P2X7 [1], the negative logarithm of the IC50 (pIC50) is 7.99. The IC50 at rat P2X7 [2] came out at 0.166 µM. The negative-log Ki (pKi) was 7.60 on rat P2X7 [5] and 7.70 at P2X7 [3].
The like results for `O=C(c1cccc(C(F)(F)F)c1Cl)N1CCn2c(C3CCC3)nnc2[C@H]1c1ccccc1` [Example 93, (R)-(2-chloro-3-(trifluoromethyl)phenyl)(3-cyclobutyl-8-phenyl-5,6-dihydro-[1,2,4]triazolo[4,3-a]pyrazin-7(8H)-yl)methanone] were, in that order, 8.09, 0.0178 µM, 8.20 and 7.80.
Consider `O=C(c1cccc(C(F)(F)F)c1Cl)N1CCn2c(nnc2C(F)(F)F)[C@H]1c1ccccc1` [Example 97, (R)-(2-chloro-3-(trifluoromethyl)phenyl)(8-phenyl-3-(trifluoromethyl)-5,6-dihydro-[1,2,4]triazolo[4,3-a]pyrazin-7(8H)-yl)methanone], for which, at P2X7 [1], the negative logarithm of the IC50 (pIC50) was 8.11. Moreover, the IC50 at rat P2X7 [2] came to 0.0428 µM. The negative logarithm of the Ki (pKi) at rat P2X7 [5] was 8.33; on P2X7 [3] it was 7.90.
The like results for `O=C(c1cccc(Cl)c1Cl)N1CCn2c(nnc2C(F)(F)F)[C@H]1c1ccccc1` [Example 102, (R)-(2,3-dichlorophenyl)(8-phenyl-3-(trifluoromethyl)-5,6-dihydro-[1,2,4]triazolo[4,3-a]pyrazin-7(8H)-yl)methanone] were, in that order, 7.98, 0.488 µM, 7.53 and 8.00.
On to `O=C(c1cccc(C(F)(F)F)c1Cl)N1CCn2c(C(F)F)nnc2[C@H]1c1ccccc1` [Example 108, (R)-(2-chloro-3-(trifluoromethyl)phenyl)(3-(difluoromethyl)-8-phenyl-5,6-dihydro-[1,2,4]triazolo[4,3-a]pyrazin-7(8H)-yl)methanone], for which the pIC50 at P2X7 [1] is 8.07. Moreover, the IC50 at rat P2X7 [2] was 0.0816 µM. Also, the pKi was 8.00 at rat P2X7 [5] and 8.24 at P2X7 [3].
The corresponding values for `O=C(c1cccc(Cl)c1Cl)N1CCn2c(C(F)F)nnc2[C@H]1c1ccccc1` [Example 110, (R)-(2,3-dichlorophenyl)(3-(difluoromethyl)-8-phenyl-5,6-dihydro-[1,2,4]triazolo[4,3-a]pyrazin-7(8H)-yl)methanone] are 8.47, 0.441 µM, 7.78 and 8.10.
